Laboratory results as given in patent publication US20230017045A1, “PYRIDINE AND PYRIMIDINE CARBOXYLATE HERBICIDES AND METHODS OF USE THEREOF” (Dow AgroSciences LLC, priority 2017, published 2023).

Each compound was assayed on test plant species (assay: Post-emergent herbicidal activity test (greenhouse, foliar spray, visual growth reduction)). Conditions: post-emergence, 336 h, ECHCG: barnyardgrass (Echinochloa crus-galli), 140 g ai/ha, 14 days after application, read-out: Visual Growth Reduction (%) 14 Days After Application, ECHCG.
Assay type: in vivo
Method: Post-emergent Test: Seeds or nutlets of the desired test plant species were planted in Sun Gro Metro-Mix® 360 planting mixture, which typically has a pH of 6.0 to 6.8 and an organic matter content of about 30 percent, in plastic pots with a surface area of 64 square centimeters. In some aspects, to ensure good germination and healthy plants, a fungicide treatment and/or other chemical or physical treatment was applied. The plants were grown for 7-21 d in a greenhouse with an approximate 15 h photoperiod which was maintained at 23-29° C. during the day and 22-28° C. during the night. Nutrients and water were added on a regular basis and supplemental lighting was provided with overhead metal halide 1000-Watt lamps as necessary. Plants were used for testing when they reached the first or second true leaf stage. A weighed amount, determined by the highest rate to be tested, of each test compound was placed in a 25 mL glass vial and was dissolved in 4 mL of a 97:3 v/v mixture of acetone and DMSO to obtain concentrated stock solutions. […] The concentrated stock solutions obtained were diluted with 20 mL of an aqueous mixture containing acetone, water, isopropyl alcohol, DMSO, […] crop oil concentrate, and X-77 surfactant in a 48.5:39:10:1.5:1.0:0.02 v/v ratio to obtain spray solutions containing the application rate. Compound requirements are based upon a 12 mL application volume at a rate of 187 liters per hectare (L/ha). Formulated compounds were applied to the plant material with an overhead Mandel track sprayer equipped with […] nozzles calibrated to deliver 187 L/ha over an application area of 0.64 square meters at a spray height of 18 inches (43 cm) above the average plant canopy height. Control plants were sprayed in the same manner with the solvent blank. The treated plants and control plants were placed in a greenhouse as described above and watered by subirrigation to prevent wash-off of the test compounds. After 14 d, the condition of the test plants as compared with that of the nontreated and control plants was determined visually and scored on a scale of 0 to 100 percent where 0 corresponds to no injury and 100 corresponds to complete control. In the reporting of the results, Table A: Percent Growth Reduction Conversion Table was used.

Structure (SMILES) | pest or weed control at 140 g/ha [%]
Cc1c(C(F)(F)F)ccc(-c2ccc(Cl)c(C(=O)O)n2)c1F [F293, 3-Chloro-6-(2-fluoro-3-methyl-4-(trifluoromethyl)phenyl)picolinic acid] | 0 to 29
COc1c(Cl)cc(Cl)c(-c2nc(C(=O)OCc3ccccc3)c(Cl)cc2F)c1F [F300, Benzyl 3-chloro-6-(4,6-dichloro-2-fluoro-3-methoxyphenyl)-5-fluoropicolinate] | 0 to 29

Same assay, conditions: post-emergence, 336 h, IPOHE: ivy-leaf morning glory (Ipomoea hederacea), 140 g ai/ha, 14 days after application, read-out: Visual Growth Reduction (%) 14 Days After Application, IPOHE

Structure (SMILES) | pest or weed control at 140 g/ha [%]
Cc1c(C(F)(F)F)ccc(-c2ccc(Cl)c(C(=O)O)n2)c1F [F293, 3-Chloro-6-(2-fluoro-3-methyl-4-(trifluoromethyl)phenyl)picolinic acid] | 0 to 29
COc1c(Cl)cc(Cl)c(-c2nc(C(=O)OCc3ccccc3)c(Cl)cc2F)c1F [F300, Benzyl 3-chloro-6-(4,6-dichloro-2-fluoro-3-methoxyphenyl)-5-fluoropicolinate] | 60 to 74

Same assay, conditions: post-emergence, 336 h, KCHSC: kochia (Bassia scoparia), 140 g ai/ha, 14 days after application, read-out: Visual Growth Reduction (%) 14 Days After Application, KCHSC

Structure (SMILES) | pest or weed control at 140 g/ha [%]
Cc1c(C(F)(F)F)ccc(-c2ccc(Cl)c(C(=O)O)n2)c1F [F293, 3-Chloro-6-(2-fluoro-3-methyl-4-(trifluoromethyl)phenyl)picolinic acid] | 0 to 29
COc1c(Cl)cc(Cl)c(-c2nc(C(=O)OCc3ccccc3)c(Cl)cc2F)c1F [F300, Benzyl 3-chloro-6-(4,6-dichloro-2-fluoro-3-methoxyphenyl)-5-fluoropicolinate] | 30 to 44

Same assay, conditions: post-emergence, 336 h, ORYSA: rice (Oryza sativa), 140 g ai/ha, 14 days after application, read-out: Visual Growth Reduction (%) 14 Days After Application, ORYSA

Structure (SMILES) | pest or weed control at 140 g/ha [%]
Cc1c(C(F)(F)F)ccc(-c2ccc(Cl)c(C(=O)O)n2)c1F [F293, 3-Chloro-6-(2-fluoro-3-methyl-4-(trifluoromethyl)phenyl)picolinic acid] | 0 to 29
COc1c(Cl)cc(Cl)c(-c2nc(C(=O)OCc3ccccc3)c(Cl)cc2F)c1F [F300, Benzyl 3-chloro-6-(4,6-dichloro-2-fluoro-3-methoxyphenyl)-5-fluoropicolinate] | 0 to 29

Same assay, conditions: post-emergence, 336 h, SETFA: giant foxtail (Setaria faberi), 140 g ai/ha, 14 days after application, read-out: Visual Growth Reduction (%) 14 Days After Application, SETFA

Structure (SMILES) | pest or weed control at 140 g/ha [%]
Cc1c(C(F)(F)F)ccc(-c2ccc(Cl)c(C(=O)O)n2)c1F [F293, 3-Chloro-6-(2-fluoro-3-methyl-4-(trifluoromethyl)phenyl)picolinic acid] | 0 to 29
COc1c(Cl)cc(Cl)c(-c2nc(C(=O)OCc3ccccc3)c(Cl)cc2F)c1F [F300, Benzyl 3-chloro-6-(4,6-dichloro-2-fluoro-3-methoxyphenyl)-5-fluoropicolinate] | 0 to 29

Same assay, conditions: post-emergence, 336 h, SORVU: grain sorghum (Sorghum vulgare), 140 g ai/ha, 14 days after application, read-out: Visual Growth Reduction (%) 14 Days After Application, SORVU

Structure (SMILES) | pest or weed control at 140 g/ha [%]
Cc1c(C(F)(F)F)ccc(-c2ccc(Cl)c(C(=O)O)n2)c1F [F293, 3-Chloro-6-(2-fluoro-3-methyl-4-(trifluoromethyl)phenyl)picolinic acid] | 0 to 29
COc1c(Cl)cc(Cl)c(-c2nc(C(=O)OCc3ccccc3)c(Cl)cc2F)c1F [F300, Benzyl 3-chloro-6-(4,6-dichloro-2-fluoro-3-methoxyphenyl)-5-fluoropicolinate] | 0 to 29

Same assay, conditions: post-emergence, 336 h, STEME: common chickweed (Stellaria media), 140 g ai/ha, 14 days after application, read-out: Visual Growth Reduction (%) 14 Days After Application, STEME

Structure (SMILES) | pest or weed control at 140 g/ha [%]
Cc1c(C(F)(F)F)ccc(-c2ccc(Cl)c(C(=O)O)n2)c1F [F293, 3-Chloro-6-(2-fluoro-3-methyl-4-(trifluoromethyl)phenyl)picolinic acid] | 0 to 29
COc1c(Cl)cc(Cl)c(-c2nc(C(=O)OCc3ccccc3)c(Cl)cc2F)c1F [F300, Benzyl 3-chloro-6-(4,6-dichloro-2-fluoro-3-methoxyphenyl)-5-fluoropicolinate] | 0 to 29

Same assay, conditions: post-emergence, 336 h, TRZAS: wheat, spring (Triticum aestivum), 140 g ai/ha, 14 days after application, read-out: Visual Growth Reduction (%) 14 Days After Application, TRZAS

Structure (SMILES) | pest or weed control at 140 g/ha [%]
Cc1c(C(F)(F)F)ccc(-c2ccc(Cl)c(C(=O)O)n2)c1F [F293, 3-Chloro-6-(2-fluoro-3-methyl-4-(trifluoromethyl)phenyl)picolinic acid] | 0 to 29
COc1c(Cl)cc(Cl)c(-c2nc(C(=O)OCc3ccccc3)c(Cl)cc2F)c1F [F300, Benzyl 3-chloro-6-(4,6-dichloro-2-fluoro-3-methoxyphenyl)-5-fluoropicolinate] | 0 to 29

Same assay, conditions: post-emergence, 336 h, blackgrass (Alopecurus myosuroides), 14 Days After Application, 140 g ai/ha, read-out: Visual Growth Reduction (%) ALOMY

Structure (SMILES) | pest or weed control at 140 g/ha [%]
Cc1c(C(F)(F)F)ccc(-c2ccc(Cl)c(C(=O)O)n2)c1F [F293, 3-Chloro-6-(2-fluoro-3-methyl-4-(trifluoromethyl)phenyl)picolinic acid] | 0 to 29
COc1c(Cl)cc(Cl)c(-c2nc(C(=O)OCc3ccccc3)c(Cl)cc2F)c1F [F300, Benzyl 3-chloro-6-(4,6-dichloro-2-fluoro-3-methoxyphenyl)-5-fluoropicolinate] | 0 to 29

Same assay, conditions: post-emergence, 336 h, canada thistle (Cirsium arvense), 14 Days After Application, 140 g ai/ha, read-out: Visual Growth Reduction (%) CIRAR

Structure (SMILES) | pest or weed control at 140 g/ha [%]
Cc1c(C(F)(F)F)ccc(-c2ccc(Cl)c(C(=O)O)n2)c1F [F293, 3-Chloro-6-(2-fluoro-3-methyl-4-(trifluoromethyl)phenyl)picolinic acid] | 30 to 44
COc1c(Cl)cc(Cl)c(-c2nc(C(=O)OCc3ccccc3)c(Cl)cc2F)c1F [F300, Benzyl 3-chloro-6-(4,6-dichloro-2-fluoro-3-methoxyphenyl)-5-fluoropicolinate] | 45 to 59

Same assay, conditions: post-emergence, 336 h, crabgrass (Digitaria sanguinalis), 14 Days After Application, 140 g ai/ha, read-out: Visual Growth Reduction (%) DIGSA

Structure (SMILES) | pest or weed control at 140 g/ha [%]
Cc1c(C(F)(F)F)ccc(-c2ccc(Cl)c(C(=O)O)n2)c1F [F293, 3-Chloro-6-(2-fluoro-3-methyl-4-(trifluoromethyl)phenyl)picolinic acid] | 0 to 29
COc1c(Cl)cc(Cl)c(-c2nc(C(=O)OCc3ccccc3)c(Cl)cc2F)c1F [F300, Benzyl 3-chloro-6-(4,6-dichloro-2-fluoro-3-methoxyphenyl)-5-fluoropicolinate] | 0 to 29

Same assay, conditions: post-emergence, 336 h, lambsquarters (Chenopodium album), 14 Days After Application, 140 g ai/ha, read-out: Visual Growth Reduction (%) CHEAL

Structure (SMILES) | pest or weed control at 140 g/ha [%]
Cc1c(C(F)(F)F)ccc(-c2ccc(Cl)c(C(=O)O)n2)c1F [F293, 3-Chloro-6-(2-fluoro-3-methyl-4-(trifluoromethyl)phenyl)picolinic acid] | 45 to 59
COc1c(Cl)cc(Cl)c(-c2nc(C(=O)OCc3ccccc3)c(Cl)cc2F)c1F [F300, Benzyl 3-chloro-6-(4,6-dichloro-2-fluoro-3-methoxyphenyl)-5-fluoropicolinate] | 75 to 84

Same assay, conditions: post-emergence, 336 h, redroot pigweed (Amaranthus retroflexus), 14 Days After Application, 140 g ai/ha, read-out: Visual Growth Reduction (%) AMARE

Structure (SMILES) | pest or weed control at 140 g/ha [%]
Cc1c(C(F)(F)F)ccc(-c2ccc(Cl)c(C(=O)O)n2)c1F [F293, 3-Chloro-6-(2-fluoro-3-methyl-4-(trifluoromethyl)phenyl)picolinic acid] | 0 to 29
COc1c(Cl)cc(Cl)c(-c2nc(C(=O)OCc3ccccc3)c(Cl)cc2F)c1F [F300, Benzyl 3-chloro-6-(4,6-dichloro-2-fluoro-3-methoxyphenyl)-5-fluoropicolinate] | 0 to 29

Same assay, conditions: post-emergence, 336 h, wild oat (Avena fatua), 14 Days After Application, 140 g ai/ha, read-out: Visual Growth Reduction (%) AVEFA

Structure (SMILES) | pest or weed control at 140 g/ha [%]
Cc1c(C(F)(F)F)ccc(-c2ccc(Cl)c(C(=O)O)n2)c1F [F293, 3-Chloro-6-(2-fluoro-3-methyl-4-(trifluoromethyl)phenyl)picolinic acid] | 0 to 29
COc1c(Cl)cc(Cl)c(-c2nc(C(=O)OCc3ccccc3)c(Cl)cc2F)c1F [F300, Benzyl 3-chloro-6-(4,6-dichloro-2-fluoro-3-methoxyphenyl)-5-fluoropicolinate] | 0 to 29

Same assay, conditions: post-emergence, 336 h, yellow nutsedge (Cyperus esculentus), 14 Days After Application, 140 g ai/ha, read-out: Visual Growth Reduction (%) CYPES

Structure (SMILES) | pest or weed control at 140 g/ha [%]
Cc1c(C(F)(F)F)ccc(-c2ccc(Cl)c(C(=O)O)n2)c1F [F293, 3-Chloro-6-(2-fluoro-3-methyl-4-(trifluoromethyl)phenyl)picolinic acid] | 0 to 29
COc1c(Cl)cc(Cl)c(-c2nc(C(=O)OCc3ccccc3)c(Cl)cc2F)c1F [F300, Benzyl 3-chloro-6-(4,6-dichloro-2-fluoro-3-methoxyphenyl)-5-fluoropicolinate] | 0 to 29
